Reference: patent US20030087906A1, “NITROGEN SUBSTITUTED BIARYL PURINE DERIVATIVES AS POTENT ANTIPROLIFERATIVE AGENTS” (priority 2001, published 2003)
Several values for one entry are separate records, joined by “and”; a condition that tells them apart may be missing. Equal values may be shown once.

Columns and labels:
[1] = molecular target: T1, CyclinB/cdk1 (Homo sapiens, UniProt P06493); assay: CyclinB/cdk1 protein kinase assay (histone H1 phosphorylation); format: biochemical; conditions: complex immunopurified from HeLa cells; 15 μM ATP; replicate experiments
T1 construct: Monoclonal antibody against cyclinB (GNS1) is added to the supernatant; endogenous in cells
T1 sequence (P06493 whole entry): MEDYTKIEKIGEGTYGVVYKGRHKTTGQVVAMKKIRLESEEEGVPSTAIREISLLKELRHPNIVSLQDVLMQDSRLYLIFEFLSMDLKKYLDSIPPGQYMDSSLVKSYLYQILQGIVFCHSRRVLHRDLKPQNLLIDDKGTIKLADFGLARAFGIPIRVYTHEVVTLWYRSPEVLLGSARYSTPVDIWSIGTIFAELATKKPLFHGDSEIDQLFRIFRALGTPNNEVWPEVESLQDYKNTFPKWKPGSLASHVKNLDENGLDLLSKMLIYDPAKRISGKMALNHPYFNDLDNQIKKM
T1 sequence (P14635 whole entry partner): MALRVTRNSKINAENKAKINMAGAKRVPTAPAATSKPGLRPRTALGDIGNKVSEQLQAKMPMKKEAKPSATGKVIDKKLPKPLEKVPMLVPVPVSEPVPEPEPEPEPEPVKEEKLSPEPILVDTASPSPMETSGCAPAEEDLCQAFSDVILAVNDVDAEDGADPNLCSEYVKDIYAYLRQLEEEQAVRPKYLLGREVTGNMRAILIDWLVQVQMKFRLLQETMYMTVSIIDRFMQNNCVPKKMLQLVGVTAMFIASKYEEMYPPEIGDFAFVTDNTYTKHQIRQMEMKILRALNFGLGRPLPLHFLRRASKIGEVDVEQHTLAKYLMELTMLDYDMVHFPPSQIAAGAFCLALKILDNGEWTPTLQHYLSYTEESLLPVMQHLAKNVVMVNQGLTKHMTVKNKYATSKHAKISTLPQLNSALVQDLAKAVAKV
Method: HeLa cells are blocked at the G1/S border by culturing in the presence of 2 mM thymidine for 20 h. The cells are then rinsed 3×in phosphate buffered saline and resuspended in regular medium. After 4 h of culture, the mitotic blocker, nocodazole is added to a final concentration of 75 ng/ml. […] The lysate is then clarified by centrifugation at 10,000×g for 10 min. The supernatant is collected and diluted 1:5 with Lysis Buffer. Monoclonal antibody against cyclinB (GNS1) is added to the supernatant to a final concentration of 5 μg/ml and shaken at 4° C. for 2 h. The immune complexes are then collected by the addition of 200 μl of protein agarose beads for 1 h. The beads are washed 4×in lysis buffer and 1×in kinase assay buffer.
Duplicate assays were performed at each concentration.

[2] = tested on: MCF7; assay: NCI 60-cell line growth inhibition assay; format: cell-based; conditions: Homo sapiens
[3] = tested on: MDA-N; assay: NCI 60-cell line growth inhibition assay; format: cell-based; conditions: Homo sapiens
[4] = tested on: T-47D; assay: NCI 60-cell line growth inhibition assay; format: cell-based; conditions: Homo sapiens, T47D
[5] = tested on: U251; assay: NCI 60-cell line growth inhibition assay; format: cell-based; conditions: Homo sapiens, U-251
[6] = tested on: SW-620; assay: NCI 60-cell line growth inhibition assay; format: cell-based; conditions: Homo sapiens
[7] = tested on: HL-60(TB); assay: NCI 60-cell line growth inhibition assay; format: cell-based; conditions: Homo sapiens; HL-60(TB) (Leukemia)
[8] = tested on: RPMI-8226; assay: NCI 60-cell line growth inhibition assay; format: cell-based; conditions: Homo sapiens
[9] = tested on: MALME-3M; assay: NCI 60-cell line growth inhibition assay; format: cell-based; conditions: Homo sapiens
[10] = tested on: SK-MEL-2; assay: NCI 60-cell line growth inhibition assay; format: cell-based; conditions: Homo sapiens
[11] = tested on: UACC-62; assay: NCI 60-cell line growth inhibition assay; format: cell-based; conditions: Homo sapiens
[12] = tested on: A549/ATCC; assay: NCI 60-cell line growth inhibition assay; format: cell-based; conditions: Homo sapiens
[13] = tested on: EKVX; assay: NCI 60-cell line growth inhibition assay; format: cell-based; conditions: Homo sapiens
[14] = tested on: HOP-62; assay: NCI 60-cell line growth inhibition assay; format: cell-based; conditions: Homo sapiens
[15] = tested on: NCI-H226; assay: NCI 60-cell line growth inhibition assay; format: cell-based; conditions: Homo sapiens
[16] = tested on: OVCAR-8; assay: NCI 60-cell line growth inhibition assay; format: cell-based; conditions: Homo sapiens
[17] = tested on: DU-145; assay: NCI 60-cell line growth inhibition assay; format: cell-based; conditions: Homo sapiens
[18] = tested on: ACHN; assay: NCI 60-cell line growth inhibition assay; format: cell-based; conditions: Homo sapiens
[19] = tested on: CAKI-1; assay: NCI 60-cell line growth inhibition assay; format: cell-based; conditions: Homo sapiens
[20] = tested on: Tumor Cells in Hollow Fibers; assay: NCI Hollow Fiber Assay (in vivo evaluation); conditions: for IP Score: IP fibers; for SC score: SC fibers
[21] = MTD (NCI in vivo evaluation, Table 8); conditions: mouse
[22] = molecular target: CyclinA/cdk2 (Homo sapiens, UniProt P24941); assay: CyclinA/cdk2 protein kinase assay (histone H1 phosphorylation); conditions: IC50 CyclinA/cdk2, complex immunopurified from HeLa cells; 15 μM ATP; replicate experiments
[23] = molecular target: CyclinE/cdk2 (Homo sapiens, UniProt P24941); assay: CyclinE/cdk2 protein kinase assay (histone H1 phosphorylation); conditions: IC50 CyclinE/cdk2, complex immunopurified from HeLa cells; 15 μM ATP; replicate experiments
[24] = tested on: HeLa S-3 cells; assay: Inhibition of cell growth of HeLa cells (SRB); format: cell-based, human; conditions: 2 days of treatment, replicate experiments
[25] = tested on: SF-268; assay: NCI 60-cell line growth inhibition assay; format: cell-based; conditions: Homo sapiens
[26] = A549/ATCC (Non-Small Cell Lung)

Structure (SMILES)	GI50 ([2]; MCF7 (Breast)) [nM]	GI50 ([3]; MDA-N (Breast)) [nM]	GI50 ([4]; T-47D (Breast)) [nM]	GI50 ([5]; U251 (CNS)) [nM]	GI50 ([6]; SW-620 (Colon)) [nM]	GI50 [7] [nM]	GI50 ([8]; RPMI-8226 (Leukemia)) [nM]	GI50 ([9]; MALME-3M (Melanoma)) [nM]	GI50 ([10]; SK-MEL-2 (Melanoma)) [nM]	GI50 ([11]; UACC-62 (Melanoma)) [nM]	GI50 [12, 26] [nM]	GI50 ([13]; EKVX (Non-Small Cell Lung)) [nM]	GI50 ([14]; HOP-62 (Non-Small Cell Lung)) [nM]	GI50 ([16]; OVCAR-8 (Ovarian)) [nM]	GI50 ([17]; DU-145 (Prostate)) [nM]	GI50 ([18]; ACHN (Renal)) [nM]	GI50 ([19]; CAKI-1 (Renal)) [nM]	IP Score [20]	SC score [20]	GI50 ([25]; SF-268 (CNS)) [nM]	other results
CC(C)n1cnc2c(NCc3ccc(-c4ccccn4)cc3)nc(N[C@H]3CC[C@H](N)CC3)nc21 [Compound 78]	< 10	< 10	30	20	< 10	< 10	< 10	10	20	30	< 10	50	20	20	60	320	790	34	0		IC50 [1]: 800 nM; GI50 ([15]; NCI-H226 (Non-Small Cell Lung)): 20 nM; Cell Types Killed [20]: OVCAR 3, SF29; MTD [21]: 6.3 mg/kg; IC50 [22]: 900 nM and 700 nM; IC50 [23]: 600 nM and 300 nM and 200 nM
CC[C@H](CO)Nc1nc(NCc2ccc(-c3cccc([N+](=O)[O-])c3)cc2)c2ncn(C(C)C)c2n1 [Compound 48]	250	20	150	170	< 10		< 10	130	480	100	< 10		30	100	550	250				< 10	GI50 [24]: 600 nM and 500 nM; GI50 ([24]; Homo sapiens, HeLa S3, 48 h): 300 nM; IC50 [22]: 22000 nM and 6000 nM; IC50 [23]: 1000 nM and 5000 nM
CC(=O)N[C@H]1CC[C@H](Nc2nc(NCc3ccc(-c4ccccn4)cc3)c3ncn(C(C)C)c3n2)CC1 [Compound 79]	< 10	< 10	< 10	< 10	< 10	< 10	< 10	< 10	< 10	< 10	< 10	< 10	< 10	< 10	< 10	< 10	< 10	26	6	< 10	IC50 [1]: 3000 nM; GI50 ([15]; NCI-H226 (Non-Small Cell Lung)): < 10 nM; MTD [21]: 6.3 mg/kg; IC50 [22]: 500 nM and 1000 nM
CC(C)n1cnc2c(NCc3ccc(-c4ccsc4)cc3)nc(N[C@H]3CC[C@H](N)CC3)nc21 [Compound 12]	< 5	< 5	8.8	7.8	< 5	< 5	< 5		9.6	27	< 5	23	< 5	7.6	17	39		26	4	< 5	IC50 [1]: 3000 nM; GI50 ([15]; NCI-H226 (Non-Small Cell Lung)): 21 nM; Cell Types Killed [20]: MDA-MB-435; MTD [21]: 3.1 mg/kg; IC50 [22]: 2000 nM and 700 nM and 900 nM and 200 nM
Cn1cnc2c(NCc3ccccc3)nc(NCCO)nc21 [Olomoucine, reference compound]	50000	79000	63000	50000	40000	40000	50000	100000	100000	32000	50000	100000	32000	63000	40000	25000	32000			50000	GI50 ([24]; Homo sapiens, HeLa S3, 48 h): 75000 nM; GI50 ([15]; NCI-H226 (Non-Small Cell Lung)): 50000 nM
CC(=O)N[C@H]1CC[C@H](Nc2nc(NCc3ccc(-c4ccccc4)nc3)c3ncn(C(C)C)c3n2)CC1 [Compound 87]	40		48	28	< 10	< 10	< 10	24	56	45	< 10		10		220	190	64	30	2	< 10	IC50 [1]: 5000 nM; GI50 [24]: 6 nM; IC50 [22]: 4000 nM and 2000 nM and 500 nM; IC50 [23]: 1000 nM and 300 nM and 100 nM
CC[C@H](CO)Nc1nc(NCc2ccc(-c3ccccc3)cc2)c2ncn(C(C)C)c2n1 [Compound 73]																		2	0		GI50 ([24]; Homo sapiens, HeLa S3, 48 h): 300 nM; GI50 ([2]; Breast, MCF7): 160 nM; GI50 ([3]; Breast, MDA-N): 130 nM; GI50 ([4]; Breast, T-47D): 250 nM; GI50 ([25]; CNS, SF-268): 160 nM; GI50 ([5]; CNS, U251): 320 nM; GI50 ([8]; Leukemia, RPMI-8226): 30 nM; GI50 ([9]; Melanoma, MALME-3M): 270 nM; GI50 ([10]; Melanoma, SK-MEL-2): 630 nM; GI50 ([11]; Melanoma, UACC-62): 300 nM; GI50 ([12]; Non-Small Cell Lung, A549/ATCC): 30 nM; GI50 ([13]; Non-Small Cell Lung, EKVX): 250 nM; GI50 ([14]; Non-Small Cell Lung, HOP-62): 60 nM; GI50 ([15]; Non-Small Cell Lung, NCI-H226): 220 nM; GI50 ([17]; Prostate, DU-145): 7080 nM; GI50 ([18]; Renal, ACHN): 320 nM; GI50 ([19]; Renal, CAKI-1): 1660 nM; MTD [21]: 100 mg/kg
CC[C@H](CO)Nc1nc(NCc2ccc(-c3ccccn3)cc2)c2ncn(C(C)C)c2n1 [Compound 17]																		8	0		GI50 ([2]; Breast, MCF7): 160 nM; GI50 ([3]; Breast, MDA-N): 110 nM; GI50 ([4]; Breast, T-47D): 130 nM; GI50 ([25]; CNS, SF-268): 40 nM; GI50 ([5]; CNS, U251): 400 nM; GI50 ([6]; Colon, SW-620): 10 nM; GI50 ([8]; Leukemia, RPMI-8226): 30 nM; GI50 ([9]; Melanoma, MALME-3M): 20000 nM; GI50 ([11]; Melanoma, UACC-62): 270 nM; GI50 ([12]; Non-Small Cell Lung, A549/ATCC): 30 nM; GI50 ([13]; Non-Small Cell Lung, EKVX): 2510 nM; GI50 ([14]; Non-Small Cell Lung, HOP-62): 200 nM; GI50 ([15]; Non-Small Cell Lung, NCI-H226): 110 nM; GI50 ([16]; Ovarian, OVCAR-8): 130 nM; GI50 ([17]; Prostate, DU-145): 630 nM; GI50 ([18]; Renal, ACHN): 400 nM; GI50 ([19]; Renal, CAKI-1): 130 nM; MTD [21]: 100 mg/kg
CC[C@H](CO)Nc1nc(NCc2ccc(-c3ccc(OC)cc3)cc2)c2ncn(C(C)C)c2n1 [Compound 43]	2700		2200	2300	1600	2100		3000	61700	3300	4100	2800	3300	3900	2600	3100	3000			3000	GI50 ([24]; Homo sapiens, HeLa S3, 48 h): 4000 nM
